Assay results published in BindingDB's records for doi:10.1016/j.bmcl.2008.08.095 (Sunesis Pharmaceuticals, 2008).

Target: Focal adhesion kinase 1 (Homo sapiens, UniProt Q05397)
Sequence (Q05397 whole entry): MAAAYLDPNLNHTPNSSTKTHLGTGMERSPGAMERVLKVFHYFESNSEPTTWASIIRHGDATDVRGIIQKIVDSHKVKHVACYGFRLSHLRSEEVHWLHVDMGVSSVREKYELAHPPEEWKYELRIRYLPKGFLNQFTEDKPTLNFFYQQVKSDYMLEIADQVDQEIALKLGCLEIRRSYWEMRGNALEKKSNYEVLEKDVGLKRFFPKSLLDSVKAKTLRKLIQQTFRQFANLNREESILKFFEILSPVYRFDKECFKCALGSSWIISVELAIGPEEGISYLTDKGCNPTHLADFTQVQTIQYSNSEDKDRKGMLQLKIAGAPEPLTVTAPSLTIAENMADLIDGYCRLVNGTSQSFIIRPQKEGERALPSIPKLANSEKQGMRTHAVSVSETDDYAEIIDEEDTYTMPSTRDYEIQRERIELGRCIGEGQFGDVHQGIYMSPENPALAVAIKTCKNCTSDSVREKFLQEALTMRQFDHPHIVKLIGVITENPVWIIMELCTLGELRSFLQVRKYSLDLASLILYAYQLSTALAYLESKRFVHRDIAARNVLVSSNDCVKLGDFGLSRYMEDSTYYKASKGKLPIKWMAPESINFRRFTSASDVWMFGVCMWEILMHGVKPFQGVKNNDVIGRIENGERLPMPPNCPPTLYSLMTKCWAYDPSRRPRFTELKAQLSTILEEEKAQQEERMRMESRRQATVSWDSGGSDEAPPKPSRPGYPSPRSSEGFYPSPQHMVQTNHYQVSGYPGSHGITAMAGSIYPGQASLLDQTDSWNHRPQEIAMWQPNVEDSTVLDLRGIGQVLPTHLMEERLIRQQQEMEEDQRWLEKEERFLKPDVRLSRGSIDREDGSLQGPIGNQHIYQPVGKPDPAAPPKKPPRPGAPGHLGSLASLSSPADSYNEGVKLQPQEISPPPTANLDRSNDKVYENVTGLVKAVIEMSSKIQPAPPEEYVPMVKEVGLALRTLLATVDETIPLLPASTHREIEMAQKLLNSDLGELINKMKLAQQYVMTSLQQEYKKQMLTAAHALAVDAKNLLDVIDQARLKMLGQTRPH

IC50 [µM]	Compound
7.46	Cc1nn(-c2cc(Cl)cc(CCC(N)=O)c2)c2cc(N[C@@H](C)c3ccccc3)ncc12 [3-[3-chloro-5-(3-methyl-6-{[(1S)-1-phenylethyl]amino}-1H-pyrazolo[4,3-c]pyridin-1-yl)phenyl]propanamide]
6.28	CC(=O)Nc1ccccc1-c1cc(Cl)cc(-n2nc(C)c3cnc(N[C@@H](C)c4ccccc4)cc32)c1 [N-{2-[3-chloro-5-(3-methyl-6-{[(1S)-1-phenylethyl]amino}-1H-pyrazolo[4,3-c]pyridin-1-yl)phenyl]phenyl}acetamide]
